Source: patent publication US10947213B1 (Merck Patent GmbH, priority 2015, dated 2021)
Structures can show the parent of a compound that is named as a salt.

What follows are compounds tested against T1, TLR7/NFKb HEK cells (Homo sapiens, UniProt Q9NYK1) (assay: HEK Cell Assay (TLR7/NFKb reporter, Steady-Glo luciferase readout)). Conditions: 30 min compound preincubation, then R*48 agonist for 5 hours, read-out: Potency.
T1 construct: expressed in transfected cells; host or cells: HEK cells (TLR7/NFKb reporter line)
T1 sequence (Q9NYK1 27-1049): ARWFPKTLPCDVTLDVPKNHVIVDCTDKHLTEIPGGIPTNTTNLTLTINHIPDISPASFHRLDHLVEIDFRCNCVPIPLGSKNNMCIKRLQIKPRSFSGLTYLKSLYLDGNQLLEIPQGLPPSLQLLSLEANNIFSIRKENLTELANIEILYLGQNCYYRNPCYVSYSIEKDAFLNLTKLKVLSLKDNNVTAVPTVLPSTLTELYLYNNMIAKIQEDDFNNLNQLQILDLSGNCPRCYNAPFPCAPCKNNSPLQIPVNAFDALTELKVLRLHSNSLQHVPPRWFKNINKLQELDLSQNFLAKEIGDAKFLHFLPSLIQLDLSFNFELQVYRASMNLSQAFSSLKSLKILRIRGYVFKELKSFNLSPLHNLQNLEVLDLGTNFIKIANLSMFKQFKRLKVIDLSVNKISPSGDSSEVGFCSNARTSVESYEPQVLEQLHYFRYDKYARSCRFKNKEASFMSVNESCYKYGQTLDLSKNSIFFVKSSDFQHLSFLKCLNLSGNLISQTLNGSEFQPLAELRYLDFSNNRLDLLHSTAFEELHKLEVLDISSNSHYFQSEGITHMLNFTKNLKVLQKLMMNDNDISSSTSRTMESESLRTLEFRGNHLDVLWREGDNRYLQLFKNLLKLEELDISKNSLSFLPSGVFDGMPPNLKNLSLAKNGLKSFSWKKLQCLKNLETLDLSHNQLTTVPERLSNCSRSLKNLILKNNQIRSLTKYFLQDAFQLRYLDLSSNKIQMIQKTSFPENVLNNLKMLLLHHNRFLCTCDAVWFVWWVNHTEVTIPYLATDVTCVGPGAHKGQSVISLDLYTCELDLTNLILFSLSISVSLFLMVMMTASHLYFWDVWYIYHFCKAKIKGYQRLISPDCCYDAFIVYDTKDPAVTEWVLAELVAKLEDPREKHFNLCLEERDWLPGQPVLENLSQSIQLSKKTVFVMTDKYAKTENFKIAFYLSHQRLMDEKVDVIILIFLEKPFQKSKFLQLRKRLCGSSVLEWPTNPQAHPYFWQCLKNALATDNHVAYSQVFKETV
Format: cell-based
How it was run: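 Steady-Glo luminescence after 5 h stimulation with R*48 agonist, following 30 min compound preincubation. Assay run in HEK cells carrying a TLR7/NFKb luciferase reporter, plated at 5000 cells/well and grown 24 h at 37° C (10% CO2) before treatment.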

Row | IC50 | SMILES
1 | > 10 µM | C[C@H]1C[C@@H](NC(=O)CC(F)(F)F)CN(c2ccnc3nccnc23)C1 [Compound 120, 3,3,3-trifluoro-N-[(3R,5S)-5-methyl-1-[pyrido[2,3-b]pyrazin-8-yl]piperidin-3-yl]propanamide]
2 | > 10 µM | C[C@H]1C[C@@H](NCC(N)=O)CN(c2ccnc3nccnc23)C1 [Compound 121, 2-[[(3R,5S)-5-methyl-1-[pyrido[2,3-b]pyrazin-8-yl]piperidin-3-yl]amino]acetamide]
3 | < 1 µM | C[C@H]1C[C@@H](NCC(N)=O)CN(c2ccc(C#N)c3nccnc23)C1 [Compound 122, 2-[[(3R,5S)-1-(8-cyanoquinoxalin-5-yl)-5-methylpiperidin-3-yl]amino]acetamide]
4 | < 1 µM | C[C@H]1C[C@@H](NC2CCNC2=O)CN(c2ccc(C#N)c3nccnc23)C1 (stereo partly drawn) [Compound 123, 8-[(3S,5R)-3-methyl-5-[(2-oxopyrrolidin-3-yl)amino]piperidin-1-yl]quinoxaline-5-carbonitrile]
5 | > 10 µM | C[C@H]1C[C@@H](NC2CCN(C)C2=O)CN(c2ccnc3nccnc23)C1 (stereo partly drawn) [Compound 126, 1-methyl-3-[[(3R,5S)-5-methyl-1-[pyrido[2,3-b]pyrazin-8-yl]piperidin-3-yl]amino]pyrrolidin-2-one]
6 | > 10 µM | C[C@H]1C[C@@H](NC2CCNC2=O)CN(c2ccnc3nccnc23)C1 (stereo partly drawn) [Compound 127, 3-[[(3R,5S)-5-methyl-1-[pyrido[2,3-b]pyrazin-8-yl]piperidin-3-yl]amino]pyrrolidin-2-one]
7 | > 10 µM | C[C@H]1C[C@@H](NC(=O)C2(N)COC2)CN(c2ccnc3nccnc23)C1 [Compound 128, 3-amino-N-[(3R,5S)-5-methyl-1-[pyrido[2,3-b]pyrazin-8-yl]piperidin-3-yl]oxetane-3-carboxamide]
8 | 1 to 10 µM | C[C@H]1C[C@@H](NC(=O)C2(N)COC2)CN(c2ccc(C#N)c3nccnc23)C1 [Compound 129, 3-amino-N-[(3R,5S)-1-(8-cyanoquinoxalin-5-yl)-5-methylpiperidin-3-yl]oxetane-3-carboxamide]
9 | < 1 µM | C[C@H]1C[C@@H](NC(=O)Cc2c[nH]cn2)CN(c2ccc(C#N)c3nccnc23)C1 [Compound 130, N-[(3R,5S)-1-(8-cyanoquinoxalin-5-yl)-5-methylpiperidin-3-yl]-2-(1H-imidazol-4-yl)acetamide hydrochloride]
10 | > 10 µM | C[C@H]1C[C@@H](NC(=O)Cc2c[nH]cn2)CN(c2ccnc3nccnc23)C1 [Compound 131, 2-(1H-imidazol-4-yl)-N-[(3R,5S)-5-methyl-1-[pyrido[2,3-b]pyrazin-8-yl]piperidin-3-yl]acetamide]
11 | < 1 µM | C[C@H]1C[C@@H](NC(=O)Cc2cn(C)cn2)CN(c2ccc(C#N)c3nccnc23)C1 [Compound 132, N-[(3R,5S)-1-(8-cyanoquinoxalin-5-yl)-5-methylpiperidin-3-yl]-2-(1-methyl-1H-imidazol-4-yl)acetamide]
12 | > 10 µM | C[C@H]1C[C@@H](NC(=O)Cc2cn(C)cn2)CN(c2ccnc3nccnc23)C1 [Compound 133, N-[(3R,5S)-5-methyl-1-[pyrido[2,3-b]pyrazin-8-yl]piperidin-3-yl]-2-(1-methyl-1H-imidazol-4-yl)acetamide]
13 | 1 to 10 µM | COCC(=O)N[C@@H]1C[C@H](C)CN(c2ccc(C#N)c3nccnc23)C1 [Compound 134, N-[(3R,5S)-1-(8-cyanoquinoxalin-5-yl)-5-methylpiperidin-3-yl]-2-methoxyacetamide]
14 | < 1 µM | C[C@H]1C[C@@H](NC2COC2)CN(c2ccc(C#N)c3nccnc23)C1 [Compound 137, 8-[(3S,5R)-3-methyl-5-[(oxetan-3-yl)amino]piperidin-1-yl]quinoxaline-5-carbonitrile]
15 | < 1 µM | C[C@H]1C[C@@H](NC2CCOC2)CN(c2ccc(C#N)c3nccnc23)C1 (stereo partly drawn) [Compound 138, 8-[(3S,5R)-3-methyl-5-[(oxolan-3-yl)amino]piperidin-1-yl]quinoxaline-5-carbonitrile]
16 | > 10 µM | C[C@H]1C[C@@H](NC2CCOC2)CN(c2ccnc3nccnc23)C1 (stereo partly drawn) [Compound 139, (3R,5S)-5-methyl-N-(oxolan-3-yl)-1-[pyrido[2,3-b]pyrazin-8-yl]piperidin-3-amine]
17 | < 1 µM | C[C@H]1C[C@@H](NC(=O)CNS(C)(=O)=O)CN(c2ccc(C#N)c3nccnc23)C1 [Compound 140, N-[(3R,5S)-1-(8-cyanoquinoxalin-5-yl)-5-methylpiperidin-3-yl]-2-methanesulfonamidoacetamide]
18 | > 10 µM | C[C@H]1C[C@@H](NC(=O)CNS(C)(=O)=O)CN(c2ccnc3nccnc23)C1 [Compound 141, 2-methanesulfonamido-N-[(3R,5S)-5-methyl-1-[pyrido[2,3-b]pyrazin-8-yl]piperidin-3-yl]acetamide]
19 | < 1 µM | C[C@H]1C[C@@H](NC(=O)CNC(C)(C)C)CN(c2ccc(C#N)c3nccnc23)C1 [Compound 142, 2-(tert-butylamino)-N-[(3R,5S)-1-(8-cyanoquinoxalin-5-yl)-5-methylpiperidin-3-yl]acetamide]
20 | > 10 µM | C[C@H]1C[C@@H](NC(=O)CNC(C)(C)C)CN(c2ccnc3nccnc23)C1 [Compound 143, 2-(tert-butylamino)-N-[(3R,5S)-5-methyl-1-[pyrido[2,3-b]pyrazin-8-yl]piperidin-3-yl]acetamide]
21 | < 1 µM | C[C@H]1C[C@@H](NC(=O)CN(C)CCO)CN(c2ccc(C#N)c3nccnc23)C1 [Compound 144, N-[(3R,5S)-1-(8-cyanoquinoxalin-5-yl)-5-methylpiperidin-3-yl]-2-[(2-hydroxyethyl)(methyl)amino]acetamide]
22 | > 10 µM | C[C@H]1C[C@@H](NC(=O)CN(C)CCO)CN(c2ccnc3nccnc23)C1 [Compound 145, 2-[(2-hydroxyethyl)(methyl)amino]-N-[(3R,5S)-5-methyl-1-[pyrido[2,3-b]pyrazin-8-yl]piperidin-3-yl]acetamide]
23 | 1 to 10 µM | C[C@H]1C[C@@H](NC(=O)C2(CO)CC2)CN(c2ccc(C#N)c3nccnc23)C1 [Compound 162, N-[(3R,5S)-1-(8-cyanoquinoxalin-5-yl)-5-methylpiperidin-3-yl]-1-(hydroxymethyl)cyclopropane-1-carboxamide]
24 | < 1 µM | C[C@H]1C[C@@H](NC(=O)C2CC2(F)F)CN(c2ccc(C#N)c3nccnc23)C1 (stereo partly drawn) [Compound 165, N-[(3R,5S)-1-(8-cyanoquinoxalin-5-yl)-5-methylpiperidin-3-yl]-2,2-difluorocyclopropane-1-carboxamide]
25 | < 1 µM | C[C@H]1C[C@@H](NC(=O)COCC2CCCO2)CN(c2ccc(C#N)c3nccnc23)C1 (stereo partly drawn) [Compound 166, N-[(3R,5S)-1-(8-cyanoquinoxalin-5-yl)-5-methylpiperidin-3-yl]-2-(oxolan-2-ylmethoxy)acetamide]
26 | < 1 µM | CC(C)C(C)C(=O)N[C@@H]1C[C@H](C)CN(c2ccc(C#N)c3nccnc23)C1 (stereo partly drawn) [Compound 167, N-[(3R,5S)-1-(8-cyanoquinoxalin-5-yl)-5-methylpiperidin-3-yl]-2,3-dimethylbutanamide]
27 | > 10 µM | CC(C)C(C)C(=O)N[C@@H]1C[C@H](C)CN(c2ccnc3nccnc23)C1 (stereo partly drawn) [Compound 168, 2,3-dimethyl-N-[(3R,5S)-5-methyl-1-[pyrido[2,3-b]pyrazin-8-yl]piperidin-3-yl]butanamide]
28 | < 1 µM | C[C@H]1C[C@@H](NC(=O)Cn2cccn2)CN(c2ccc(C#N)c3nccnc23)C1 [Compound 169, N-[(3R,5S)-1-(8-cyanoquinoxalin-5-yl)-5-methylpiperidin-3-yl]-2-(1H-pyrazol-1-yl)acetamide]
29 | > 10 µM | C[C@H]1C[C@@H](NC(=O)Cn2cccn2)CN(c2ccnc3nccnc23)C1 [Compound 170, N-[(3R,5S)-5-methyl-1-[pyrido[2,3-b]pyrazin-8-yl]piperidin-3-yl]-2-(1H-pyrazol-1-yl)acetamidw]

Row | SMILES | IC50
30 | C[C@H]1C[C@@H](NC(=O)COC(C)(C)C)CN(c2ccc(C#N)c3nccnc23)C1 [Compound 163, 2-(tert-butoxy)-N-[(3R,5S)-1-(8-cyanoquinoxalin-5-yl)-5-methylpiperidin-3-yl]acetamide] | < 1 µM
31 | C[C@H]1C[C@@H](NC(=O)COC(C)(C)C)CN(c2ccnc3nccnc23)C1 [Compound 164, 2-(tert-butoxy)-N-[(3R,5S)-5-methyl-1-[pyrido[2,3-b]pyrazin-8-yl]piperidin-3-yl]acetamide] | > 10 µM
